These are literature values, as cited in patent publication US12410474B2, “Methods, kits, and devices for diagnosing, prognosing, and treating psychiatric disorders in a patient” (Northwestern University, priority 2014, dated 2025).

Data set [1] relates to HTR2C Ser23 and Cys23 isoreceptors. To be noted: after prolonged pre-exposure to serotonin.
The next data set addresses T1, HTR2C (Homo sapiens, UniProt P28335).
T1 sequence (P28335 33-458): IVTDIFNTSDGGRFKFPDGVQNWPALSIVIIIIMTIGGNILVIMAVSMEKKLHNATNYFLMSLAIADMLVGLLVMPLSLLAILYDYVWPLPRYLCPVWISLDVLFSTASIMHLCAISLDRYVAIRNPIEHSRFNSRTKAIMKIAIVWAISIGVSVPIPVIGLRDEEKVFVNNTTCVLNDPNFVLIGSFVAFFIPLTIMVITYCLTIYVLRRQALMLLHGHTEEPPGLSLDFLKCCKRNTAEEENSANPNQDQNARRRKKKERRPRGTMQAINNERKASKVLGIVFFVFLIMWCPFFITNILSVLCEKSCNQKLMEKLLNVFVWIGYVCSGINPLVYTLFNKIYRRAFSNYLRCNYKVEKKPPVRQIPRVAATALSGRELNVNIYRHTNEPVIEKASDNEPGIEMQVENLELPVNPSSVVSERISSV

In another data set the target is HTR2A (Homo sapiens, UniProt P28223).
Chain of HTR2A (P28223 whole entry): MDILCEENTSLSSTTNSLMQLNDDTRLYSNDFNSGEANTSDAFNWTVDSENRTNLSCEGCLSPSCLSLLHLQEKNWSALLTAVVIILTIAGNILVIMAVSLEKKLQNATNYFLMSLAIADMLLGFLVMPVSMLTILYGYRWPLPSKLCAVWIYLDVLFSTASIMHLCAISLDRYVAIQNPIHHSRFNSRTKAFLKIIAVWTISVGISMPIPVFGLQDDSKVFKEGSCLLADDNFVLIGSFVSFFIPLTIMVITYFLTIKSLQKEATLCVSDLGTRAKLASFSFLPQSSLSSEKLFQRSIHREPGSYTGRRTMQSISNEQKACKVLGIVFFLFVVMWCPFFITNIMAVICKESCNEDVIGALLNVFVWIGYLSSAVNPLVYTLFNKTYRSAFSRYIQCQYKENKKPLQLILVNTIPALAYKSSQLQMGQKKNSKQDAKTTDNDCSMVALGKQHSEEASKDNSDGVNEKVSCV

`Cn1ccc2cc3c(cc21)CCN3C(=O)Nc1cccnc1` [SB206553]: in data set [1], the “cell surface expression in Ser-receptors versus Cys-receptors” value is reported as “greater cell surface expression” and the “resensitization in Ser-receptors versus Cys-receptors” value was “more rapid resensitization”. On to `CN(C)CCCN1c2ccccc2Sc2ccc(Cl)cc21` [chlorpromazine], for which the “functional activity at HTR2C” value at HTR2C is reported as “neutral antagonists”.

With `Cc1nc2n(c(=O)c1CCN1CCC(c3noc4cc(F)ccc34)CC1)CCCC2` [risperidone], on HTR2C, the “functional activity at HTR2C” value is “potent inverse agonists”.

In the case of `O=C1NCCN1CCN1CCC(c2cn(-c3ccc(F)cc3)c3ccc(Cl)cc23)CC1` [sertindole], the “functional activity at HTR2A” value at HTR2A is recorded as “potent inverse agonists”. For the same compound, at HTR2C, the “functional activity at HTR2C” value was “potent inverse agonists”.

Consider `O=C(CCCN1CCC2(CC1)C(=O)NCN2c1ccccc1)c1ccc(F)cc1` [spiperone], for which the “functional activity at HTR2C” value at HTR2C is given as “neutral antagonists”. With `CSc1ccc2c(c1)N(CCC1CCCCN1C)c1ccccc1S2` (stereo not drawn) [thioridazine], the “functional activity at HTR2C” value on HTR2C is given as “neutral antagonists”. For the compound `CN1CCN(CC/C=C2/c3ccccc3Sc3ccc(S(=O)(=O)N(C)C)cc32)CC1` [thiothixene], the “functional activity at HTR2C” value on HTR2C was “neutral antagonists”.
